Test results from PubChem BioAssay AID248 (DTP/NCI, 2004).
Several values for one entry are separate records, joined by “and”; a condition that tells them apart may be missing. Identical values can stand only once. Toxic doses and inconclusive results are not listed. No stated cut-off is given here; in the data, active means T/C of 150% or more; inactive means T/C below 125%.

Tested on: L1210 leukemia ip in BDF1 mice, survival T/C
Assay: NCI In Vivo Anticancer Drug Screen. Data for tumor model L1210 Leukemia (intraperitoneal) in B6D2F1 (BDF1) mice
Details: endpoint: mean survival time, higher = longer survival
How it was run: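 Read-out is survival time, reported as the treated-group measurement over the vehicle-control measurement.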

[1] = dose: 100.0 mg/kg/injection, schedule: Q04DX003 (ip), vehicle: saline with Tween-80
[2] = dose: 200.0 mg/kg/injection, schedule: Q04DX003 (ip), vehicle: saline with Tween-80
[3] = dose: 400.0 mg/kg/injection, schedule: Q04DX003 (ip), vehicle: saline with Tween-80
[4] = dose: 50.0 mg/kg/injection, schedule: Q01DX001 (ip), vehicle: saline with Tween-80
[5] = dose: 100.0 mg/kg/injection, schedule: Q01DX001 (ip), vehicle: saline with Tween-80
[6] = dose: 50.0 mg/kg/injection, schedule: Q01DX009 (ip), vehicle: Klucel (hydroxypropylcellulose) (HPC)
[7] = dose: 100.0 mg/kg/injection, schedule: Q01DX009 (ip), vehicle: Klucel (hydroxypropylcellulose) (HPC)
[8] = dose: 100.0 mg/kg/injection, schedule: Q04DX002 (ip), vehicle: Klucel (hydroxypropylcellulose) (HPC)
[9] = dose: 200.0 mg/kg/injection, schedule: Q04DX002 (ip), vehicle: Klucel (hydroxypropylcellulose) (HPC)
[10] = dose: 50.0 mg/kg/injection, schedule: Q01DX001 (ip), vehicle: carboxymethylcellulose (CMC)
[11] = dose: 100.0 mg/kg/injection, schedule: Q01DX001 (ip), vehicle: carboxymethylcellulose (CMC)
[12] = dose: 200.0 mg/kg/injection, schedule: Q01DX001 (ip), vehicle: carboxymethylcellulose (CMC)
[13] = dose: 400.0 mg/kg/injection, schedule: Q01DX001 (ip), vehicle: carboxymethylcellulose (CMC)
[14] = dose: 200.0 mg/kg/injection, schedule: Q01DX001 (ip), vehicle: saline with Tween-80
[15] = dose: 100.0 mg/kg/injection, schedule: Q04DX003 (ip), vehicle: Klucel (hydroxypropylcellulose) (HPC)
[16] = dose: 200.0 mg/kg/injection, schedule: Q01DX009 (ip), vehicle: Klucel (hydroxypropylcellulose) (HPC)
[17] = dose: 200.0 mg/kg/injection, schedule: Q04DX003 (ip), vehicle: Klucel (hydroxypropylcellulose) (HPC)
[18] = dose: 400.0 mg/kg/injection, schedule: Q04DX003 (ip), vehicle: Klucel (hydroxypropylcellulose) (HPC)
[19] = dose: 100.0 mg/kg/injection, schedule: Q01DX001 (ip), vehicle: saline
[20] = dose: 200.0 mg/kg/injection, schedule: Q01DX001 (ip), vehicle: saline

Measured: T/C

CCCCN(CCCC)CP(=O)(CN(CCCC)CCCC)CN(CCCC)CCCC
inactive: [1] 93 % of control | [2] 96 % of control | [3] 111 % of control

CC(=O)CCSC(C)C
inactive: dose: 50.0 mg/kg/injection, schedule: Q01DX009 (ip), vehicle: saline with Tween-80 89 % of control | dose: 100.0 mg/kg/injection, schedule: Q01DX009 (ip), vehicle: saline with Tween-80 92 % of control | dose: 200.0 mg/kg/injection, schedule: Q01DX009 (ip), vehicle: saline with Tween-80 92 % of control

Cc1ccc(S(=O)(=O)OC2C(C(O)CO)OC3OC(C)(C)OC32)cc1 (stereo not drawn)
inactive: dose: 100.0 mg/kg/injection, schedule: Q04DX002 (ip), vehicle: saline with Tween-80 90 % of control | dose: 200.0 mg/kg/injection, schedule: Q04DX002 (ip), vehicle: saline with Tween-80 97 % of control | dose: 400.0 mg/kg/injection, schedule: Q04DX002 (ip), vehicle: saline with Tween-80 101 % of control

Nc1cc(F)c([N+](=O)[O-])cc1[N+](=O)[O-]
inactive: dose: 8.0 mg/kg/injection, schedule: Q01DX015 (ip), vehicle: carboxymethylcellulose (CMC) 89 % of control | dose: 16.0 mg/kg/injection, schedule: Q01DX015 (ip), vehicle: carboxymethylcellulose (CMC) 91 % of control | dose: 32.0 mg/kg/injection, schedule: Q01DX015 (ip), vehicle: carboxymethylcellulose (CMC) 102 % of control

Cc1ccc(S(=O)(=O)OCC(O)C(OC(=O)c2ccccc2)C(OC(=O)c2ccccc2)C(CO)OC(=O)c2ccccc2)cc1 (stereo not drawn)
inactive: dose: 25.0 mg/kg/injection, schedule: Q01DX001 (ip), vehicle: saline with Tween-80 92 % of control | [4] 95 % of control | [5] 88 % of control and 89 % of control

O=C(N1CCCCC1)C(Cl)(Cl)Cl
inactive: [6] 98 % of control | [7] 88 % of control | [8] 92 % of control | [9] 110 % of control

CN(CC(=O)C(C(N)=O)c1ccccc1)c1ccccc1 (stereo not drawn)
inactive: [10] 96 % of control | [11] 93 % of control | [12] 93 % of control | [13] 102 % of control

COC(=O)CCN1C(=O)c2ccccc2C1=O
inactive: [5] 110 % of control | [14] 102 % of control

Cc1cc2ncn(C(=O)Nc3ccccc3)c2cc1C
inactive: [1] 92 % of control | [2] 87 % of control | [3] 90 % of control

S=C(Nc1cc2c3c(c1)CCCN3CCC2)Nc1cc2c3c(c1)CCCN3CCC2
inactive: [4] 107 % of control | [5] 94 % of control | [14] 97 % of control | dose: 400.0 mg/kg/injection, schedule: Q01DX001 (ip), vehicle: saline with Tween-80 89 % of control

CSc1ccc(NC(=O)Nc2ccccc2C)cc1
inactive: [7] 100 % of control | [15] 93 % of control | [16] 94 % of control | [17] 95 % of control | dose: 400.0 mg/kg/injection, schedule: Q01DX009 (ip), vehicle: Klucel (hydroxypropylcellulose) (HPC) 96 % of control | [18] 88 % of control

Cc1ccc([N+](=O)[O-])cc1NC(=O)Cc1ccccc1
inactive: [8] 101 % of control | [9] 93 % of control | dose: 400.0 mg/kg/injection, schedule: Q04DX002 (ip), vehicle: Klucel (hydroxypropylcellulose) (HPC) 93 % of control

CCN=C(Nc1cccc(C2=NCCN2)c1)c1ccc(C(=NCC)Nc2cccc(C3=NCCN3)c2)cc1
inactive: dose: 2.0 mg/kg/injection, schedule: Q01DX Z (ip), vehicle: carboxymethylcellulose (CMC) 109 % of control | dose: 4.0 mg/kg/injection, schedule: Q01DX Z (ip), vehicle: carboxymethylcellulose (CMC) 95 % of control | dose: 8.0 mg/kg/injection, schedule: Q01DX Z (ip), vehicle: carboxymethylcellulose (CMC) 103 % of control | dose: 16.0 mg/kg/injection, schedule: Q01DX Z (ip), vehicle: carboxymethylcellulose (CMC) 107 % of control

NCC1CCNCC1
inactive: dose: 25.0 mg/kg/injection, schedule: Q04DX002 (ip), vehicle: saline 103 % of control | dose: 50.0 mg/kg/injection, schedule: Q04DX002 (ip), vehicle: saline 97 % of control and 100 % of control | dose: 100.0 mg/kg/injection, schedule: Q04DX002 (ip), vehicle: saline 103 % of control and 106 % of control | dose: 200.0 mg/kg/injection, schedule: Q04DX002 (ip), vehicle: saline 102 % of control and 90 % of control | dose: 400.0 mg/kg/injection, schedule: Q04DX002 (ip), vehicle: saline 97 % of control

Oc1ccccc1C1OCCO1
inactive: [19] 107 % of control | [20] 95 % of control | dose: 400.0 mg/kg/injection, schedule: Q01DX001 (ip), vehicle: saline 95 % of control

C/C(=N/N=C(N)N)c1ccc(/C(C)=N/N=C(N)N)cc1
inactive: dose: 3.75 mg/kg/injection, schedule: Q01DX Z (ip), vehicle: saline 95 % of control | dose: 7.5 mg/kg/injection, schedule: Q01DX Z (ip), vehicle: carboxymethylcellulose (CMC) 100 % of control | dose: 7.5 mg/kg/injection, schedule: Q01DX Z (ip), vehicle: saline 101 % of control | dose: 15.0 mg/kg/injection, schedule: Q01DX Z (ip), vehicle: carboxymethylcellulose (CMC) 107 % of control | dose: 15.0 mg/kg/injection, schedule: Q01DX Z (ip), vehicle: saline 110 % of control and 112 % of control | dose: 30.0 mg/kg/injection, schedule: Q01DX Z (ip), vehicle: carboxymethylcellulose (CMC) 117 % of control | dose: 30.0 mg/kg/injection, schedule: Q01DX Z (ip), vehicle: saline 112 % of control | dose: 480.0 mg/kg/injection, schedule: Q01DX009 (oral), vehicle: saline 93 % of control | dose: 960.0 mg/kg/injection, schedule: Q01DX009 (oral), vehicle: saline 93 % of control

COC1C(COC(=O)c2ccccc2)OC2OC(C)(C)OC21 (stereo not drawn)
inactive: [10] 98 % of control | [11] 98 % of control | [12] 93 % of control | [13] 109 % of control

Cc1ccccc1C(O)(c1ccccc1C)C1(O)CCN(C)CC1
inactive: dose: 9.37 mg/kg/injection, schedule: Q01DX009 (ip), vehicle: saline 94 % of control | dose: 18.75 mg/kg/injection, schedule: Q01DX009 (ip), vehicle: saline 96 % of control | dose: 37.5 mg/kg/injection, schedule: Q01DX009 (ip), vehicle: saline 100 % of control

Cc1c(/C=N/N=c2/[nH][nH]/c(=N/N=C/c3c(C)n(C)n(-c4ccccc4)c3=O)c3ccccc23)c(=O)n(-c2ccccc2)n1C
inactive: dose: 50.0 mg/kg/injection, schedule: Q01DX001 (ip), vehicle: saline 93 % of control | [19] 106 % of control | [20] 114 % of control

Cc1ccc(NC(=O)N(Cc2ccccc2)Cc2ccccc2)c([N+](=O)[O-])c1
inactive: [6] 87 % of control | [7] 123 % of control | [15] 95 % of control | [16] 90 % of control | [17] 101 % of control | [18] 99 % of control
